Assay results: US20190307833A1, “TREATMENT OF AGE-RELATED MACULAR DEGENERATION WITH NEUROTROPHIC PEPTIDERGIC COMPOUND” (The Research Foundation for Mental Hygiene, Inc., priority 2018, published 2019)
*1 amine or outer side, *2 acyl side, *3 side chain or, on linkers, in order; H or OH if unused. Where a SMILES comes first, the peptide text is derived from it. [ ]: non-standard residue; d: D form. X1 = O=C(C1(N[*:1])C2CC3CC(C2)CC1C3)[*:2]

Assays:
RPE of aged 3×Tg-AD mice = assay: Auto-fluorescence of RPE lipofuscin granules and deposits in aged 3×Tg-AD mice; assay type: in vivo, mouse
Text: (§1) At approximately 3 months of age, the female wild type and 3×Tg-AD mice were divided into five groups (n=6-7 mice per group) (FIG. 3A): (1) Wild type mice, age 3 months, without treatment (WT-3m); (2) 3×Tg-AD mice, age 3 months, without treatment (3×Tg-3m); (3) Wild type mice, age 3 months, treated with vehicle feed without P021 until the age of 21 months (WT-21m/Veh); (4) 3×Tg-AD-mice, age 3 months, treated with vehicle feed without P021 until the age of 21 months (3×Tg-21m/Veh); and (5) 3×Tg-AD-mice, age 3 months, treated with 60 nmol P021/g feed till the age of 21 months (3×Tg-21m/P021). The first two groups were the starting point and were employed as the matched young controls. P021 was formulated in the feed by Research Diets (New Brunswick, N.J., USA). Food consumption and body weight were recorded every 2 weeks and every month, respectively. The average mouse food consumption was ˜2.7 g feed/day.
(§2) The animals were anesthetized by using an overdose of avertin and then were transcardially perfused by using 0.1 M phosphate-buffered saline (PBS). Eyeballs were dissected out from the carcasses, immersion-fixed for 24 hours in 4% paraformaldehyde at 4° C., and then transferred to 70% alcohol for storage; in the case of mice, the eyeballs were prefixed by injecting 4% paraformaldehyde, followed by removal from the carcasses and immersion fixation as above. After the cornea and lens of the left eyes were removed, the remaining eye cup was embedded in paraffin with the orientation parallel to the optic nerve in longitudinal position. In all cases, 5-μm serial sections were cut by using a rotary microtome and were mounted on Superfrost Plus slides.
(§3) Paraffin sections were deparaffinized, rehydrated, and covered with coverslips with 0.1M PBS and then photographed by using a confocal microscope with red channel (λex=543, λem=590/50), as described previously. […] For quantification, the number of deposits between RPE and Cho in each section was manually counted by using a 20× or, where necessary, a higher magnification objective.

[1] = cited from earlier work
[2] = tested on: retina of aged 3×Tg-AD mice; assay: Retinal morphology by H & E staining in aged 3×Tg-AD mice; assay type: in vivo, mouse; conditions: 60 nmoles/g feed from 3 to 21 months of age
Text: as §1, §2
(§4) Every 25th retinal section was deparaffinized and subjected to hematoxylin and eosin (H & E) staining to evaluate the morphology. The H & E staining images were captured with a light microscope using 2×, 40×, and 100× objective lenses. Because there is no significant difference between the ⅕th to the ⅓rd of the retina from the optic nerve head and the most peripheral part, the ⅕^th position of the retina from the optic nerve to the most peripheral part of the retina was chosen as the “central,” and the most peripheral part of the retina as “peripheral.” Rows of the outer nuclear layer (ONL) and the inner nuclear layer (INL) of the retina in each group (every 25th section, 3-5 sections per rat or mouse) were manually counted in three columns per image by using a 40× or, where necessary, a higher magnification objective. The thicknesses of the ONL and INL of the central and peripheral retina in each group (every 25th section from the optic nerve head, 2-3 sections per rat or mouse) were measured and quantified by using the ImageJ/NIH image analysis system.

[3] = Stability in artificial intestinal juice; assay type: in vitro ADME; conditions: simulated intestinal fluid; during 120 minutes; read-out: stable in artificial intestinal juice
Experimental: (§5) P021 is quite stable in artificial gastric juice (˜90% during 30 minutes) and in artificial intestinal juice (˜95% during 120 minutes).

RPE of aged Fisher rats = assay: Auto-fluorescence of RPE lipofuscin granules and deposits in aged Fisher rats; assay type: in vivo, rat; conditions: 500 nmoles/kg/day by gavage, 3 months
Experimental: (§6) Female aged (19˜21 months) Fisher rats (n=7) were given P021 per os by gavage (10 ml/kg body weight) once a day for 88 days. The dose of P021 was 500 nanomoles (289.15 microgram)/kg body weight daily. As controls, a second group of aged (19˜21 months) female rats (n=7) and a group of young adult female rats (2-3 months, n=7) were treated identically, but with normal saline (vehicle) only (FIG. 1A). Administration of vehicle and test compound was done at 7-9 AM daily in the pretesting phase.
(§7) The animals were anesthetized by using an overdose of avertin and then were transcardially perfused by using 0.1 M phosphate-buffered saline (PBS). Eyeballs were dissected out from the carcasses, immersion-fixed for 24 hours in 4% paraformaldehyde at 4° C., and then transferred to 70% alcohol for storage; in the case of mice, the eyeballs were prefixed by injecting 4% paraformaldehyde, followed by removal from the carcasses and immersion fixation as above. […]
as §3

[4] = tested on: rat and mouse models of AD; conditions: cited from earlier work
GFAP [5] = assay: GFAP immunofluorescence (astrogliosis) in retina of aged rats; assay type: in vivo, rat
Experimental: as §6, §7
(§8) Paraffin sections were deparaffinized, rehydrated, and subjected to antigen retrieval by boiling for 20 minutes in 10 mM sodium citrate solution (pH 6.0). […] The area to be analyzed was selected and converted to grey scale, the threshold (Yen mode) was adjusted, and the area percentage of positive staining was measured for each section by using the NIH Image J software package. […]

[6] = BBB studies through a commercial service (APREDICA)
total tau, P-tau, Aβ/APP [7] = assay: Tau, phosphorylated tau and Aβ/APP immunofluorescence in retina and optic nerve of aged 3×Tg-AD mice; assay type: in vivo, mouse
Text: as §1, §2
(§9) Paraffin sections were deparaffinized, rehydrated, and subjected to antigen retrieval by boiling for 20 minutes in 10 mM sodium citrate solution (pH 6.0). Sections were then washed three times in 10 mM PBS for 15 minutes each and incubated in 0.3% Triton X-100 for 30 minutes. The sections were again washed in 10 mM PBS (15 minutes, three times each) and blocked in blocking solution (5% normal goat serum containing 0.1% Triton X-100 and 0.05% Tween 20 in PBS) for 45 minutes. Sections were then incubated overnight at 4° C. with the corresponding primary antibodies (see Table 1 for antibodies used in this study) diluted in the same blocking solution. After being washed three times for 15 minutes each with 10 mM PBS, sections were incubated with Alexa-Fluor 488-conjugated goat anti-mouse or anti-rabbit IgG secondary antibodies (1:1000) in 10 mM PBS with 0.05% Tween 20 for 2 hours at room temperature. Sections were subsequently washed one time and incubated with To-Pro (1:1000) for 15 minutes. After being washed three times for 15 minutes, sections were mounted and cover-slipped by using ProLong Gold anti-fade reagent. The absence of primary antibody control staining was included in each experiment as a negative control. Double immunofluorescence and To-Pro images were captured at equal camera exposure (for each antibody staining) with a Nikon EZ-C1 laser confocal imaging system. The area to be analyzed was selected and converted to grey scale, the threshold (Yen mode) was adjusted, and the area percentage of positive staining was measured for each section by using the NIH Image J software package. The staining area was averaged from 2-3 independent sections of each eye (n=5-7 different animals per group).

Iba-1 [8] = assay: Iba-1 immunofluorescence (microgliosis) in retina of aged 3×Tg-AD mice; assay type: in vivo, mouse; conditions: 60 nmoles/g feed from 3 to 21 months of age
Text: as §1, with “feed/day. […]” for “feed/day.”
as §8

[9] = Stability in artificial gastric juice; assay type: in vitro ADME; conditions: simulated gastric fluid; during 30 minutes; read-out: stable in artificial gastric juice
Experimental: as §5

total tau, P-tau, Aβ/APP [10] = assay: Tau, phosphorylated tau and Aβ/APP immunofluorescence in retina of aged rats; assay type: in vivo, rat
Experimental: as §6, §2, §9

[11] = chronic oral treatment, aged rats and mice; cited from earlier work
[12] = tested on: retina of aged Fisher rats; assay: Retinal morphology by H & E staining in aged Fisher rats; assay type: in vivo, rat; conditions: 500 nmoles/kg/day by gavage, 3 months
Experimental: as §6, §2, §4

Iba-1 [13] = assay: Iba-1 immunofluorescence (microgliosis) in retina of aged rats; assay type: in vivo, rat; conditions: 500 nmoles/kg/day by gavage, 3 months
Experimental: as §6, §2
as §8, with “6.0). Sections were then washed three times in 10 mM PBS for 15 minutes each and incubated in 0.3% Triton X-100 for 30 minutes. The sections were again washed in 10 mM PBS (15 minutes, three times each) and blocked in blocking solution (5% normal goat serum containing 0.1% Triton X-100 and 0.05% Tween 20 in PBS) for 45 minutes.” for “6.0).”

VEGF = VEGF immunofluorescence in retina and optic nerve of aged 3×Tg-AD mice; assay type: in vivo, mouse
Text: as §1, §2, §8

GFAP [14] = assay: GFAP immunofluorescence (astrogliosis) in retina of aged 3×Tg-AD mice; assay type: in vivo, mouse; conditions: 60 nmoles/g feed from 3 to 21 months of age
Text: as §1, §2, §8

[15] = 60 nmoles/g feed from 3 to 21 months of age, auto-fluorescence
[16] = 3×Tg-AD mice, 60 nmoles/g feed from 3 to 21 months of age

remaining at 2 h [3]: ~95%
remaining at 0.5 h [9]: ~90%
SMILES: CC(=O)N[C@@H](CC(=O)O)C(=O)NCC(=O)NCC(=O)N[C@@H](CC(C)C)C(=O)NC1(C(N)=O)C2CC3CC(C2)CC1C3 (stereo partly shown) [P021, Ac-DGGL^AG-NH2] (Ac-DGGL[X1]-NH2)
deposits between the RPE and Cho (RPE of aged 3×Tg-AD mice; [15]): significantly reduced
lipofuscin granules in RPE (RPE of aged 3×Tg-AD mice; [15]): some small lipofuscin granules could still be observed
RPE and BM abnormalities (AMD features) overall (RPE of aged 3×Tg-AD mice; P021 administered in the diet): Most of these AMD features were prevented
oral bioavailability [1]: orally bioavailable
decrease in rows and thickness of INL in the central retina [2]: chronic treatment with P021 prevented these changes
decrease in rows and thickness of ONL in the central retina [2]: prevented
decrease in rows and thickness of ONL in the peripheral retina [2]: not in the peripheral retina
extension of ONL nuclei across the OPL into the INL, central retina [2]: this pathology was prevented
prevention of changes in rows and thickness of INL in the peripheral retina [2]: did not reach significance
rescue of INL thickness in the central retina [2]: did not reach statistical significance
lipofuscin granules and deposition number between RPE and Cho (RPE of aged Fisher rats): obviously decreased
cognitive impairment, synaptic deficit, neuroinflammation, tau and Aβ pathologies [4]: rescue cognitive impairment, synaptic deficit, neuroinflammation, and tau and Aβ pathologies
area percentage of GFAP-positive staining, central and peripheral retinas (GFAP [5]): drastically elevated in the central and peripheral retinas in ˜22- to 24-month-old/Veh rats as compared to ˜5- to 6-month-old/Veh rats and ˜22- to 24-month-old/P021 rats
GFAP staining (GFAP [5]; 500 nmoles/kg/day by gavage, 3 months, vs vehicle aged rats): reduced very much
crossing of the BBB [6]: a sufficient amount of P021 crossed the BBB
tau and Aβ pathologies in the retina (total tau, P-tau, Aβ/APP [7]; [16]): prevented the increase in tau and Aβ pathologies
Aβ/APP immunoreactivity (total tau, P-tau, Aβ/APP [7]; retinas of aged mice): prevents increase of Aβ/APP immunoreactivity
tau hyperphosphorylation at Ser-202/Thr-205 (AT8 site) (total tau, P-tau, Aβ/APP [7]; retinas of aged mice): prevents increase in the expression of tau hyperphosphorylation at Ser-202/Thr-205
tau hyperphosphorylation at Ser-396/404 (PHF-1 site) (total tau, P-tau, Aβ/APP [7]; retinas of aged mice): prevents increase in the expression of tau hyperphosphorylation at Ser-396/404
total tau immunoreactivity (R134d) (total tau, P-tau, Aβ/APP [7]; retinas of aged mice): prevents the increase in total tau immunoreactivity
Iba-1 immunostaining (area percentage) in the peripheral retina (Iba-1 [8]): decreased in 3×Tg-21 m/P021 mice to the levels in WT-3 m/Veh and 3×Tg-3 m/Veh mice
distribution of Iba-1-positive staining in the central retina (Iba-1 [8]): Iba-1-positive staining was only observed in the GCL
tau and Aβ pathologies in the retina (total tau, P-tau, Aβ/APP [10]; aged rats, 500 nmoles/kg/day by gavage, 3 months): prevented the increase in tau and Aβ pathologies
Aβ/APP immunoreactivity (total tau, P-tau, Aβ/APP [10]; retinas of aged rats): prevents increase of Aβ/APP immunoreactivity
tau hyperphosphorylation at Ser-202/Thr-205 (AT8 site) (total tau, P-tau, Aβ/APP [10]; retinas of aged rats): prevents increase in the expression of tau hyperphosphorylation at Ser-202/Thr-205
tau hyperphosphorylation at Ser-396/404 (PHF-1 site) (total tau, P-tau, Aβ/APP [10]; retinas of aged rats): prevents increase in the expression of tau hyperphosphorylation at Ser-396/404
total tau immunoreactivity (R134d) (total tau, P-tau, Aβ/APP [10]; retinas of aged rats): prevents the increase in total tau immunoreactivity
general physical state (side effects) [11]: did not reveal any worsening in general physical state
RPE vacuolization and atrophy [12]: no apparent abnormalities were observed
arrangement of apical microvilli (AM) in RPE [12]: showed improvement in the arrangement of AM
decrease in rows and thickness of ONL, central vs peripheral retina [12]: prevented these pathological changes more effectively in the central retina
outer retinal folds and rosette-like structures in the central retina [12]: No abnormal structure like this was observed
rows and thickness of INL in the central retina [12]: no detectable effect
rows and thickness of ONL, P021-treated aged rats vs young rats [12]: no significant difference between ˜5- to 6-month-old rats and P021-treated ˜22- to 24-month-old rats
rows of INL in the peripheral retina [12]: showed a clear trend to rescue the number of rows
relative Iba-1 immunostaining from the NFL to the OS, central and peripheral retinas (Iba-1 [13]): dramatically reduced
Iba-1 staining from the ONL to the OS (Iba-1 [13]; especially central retina): no staining was found from the ONL to the OS
localization of Iba-1 from the NFL to the OPL (Iba-1 [13]; vs vehicle aged rats): decrease in localization from the NFL to the OPL
VEGF staining in the optic nerve (VEGF; [16]): the size of the staining patch was decreased
localization of VEGF-positive spots in the retina (VEGF; [16]): limited mainly to the GFL to the IPL
expression of VEGF in retinas (VEGF; aged mice): prevents increase in the expression of VEGF
area percentage of GFAP from the NFL to the ONL in the central retina (GFAP [14]): reduced by P021 treatment to the levels in WT-3m/Veh and 3×Tg-3 m/Veh mice
distribution of GFAP-positive staining (GFAP [14]): limited to the NFL and GCL
area percentage of GFAP in the peripheral retina (GFAP [14]; similar trend): did not reach statistical significance
